We go through two compounds from PMC7269481, “ZN148 Is a Modular Synthetic Metallo-β-Lactamase Inhibitor That Reverses Carbapenem Resistance in Gram-Negative Pathogens In Vivo” (Antimicrobial Agents and Chemotherapy, 2020).

In assay [1] the test system is NDM-1-producing K. pneumoniae K66-45. As to the kind of experiment: Meropenem MIC, broth microdilution, indicator strain K66-45. It is filed as cell-based. The settings on record: for MIC: Klebsiella pneumoniae. How it is done: (§1) MICs of carbapenems alone and in combination with inhibitors were determined by broth microdilution according to the Clinical and Laboratory Standards Institute (CLSI) guidelines ([48]) using either premade plates (TREK Diagnostic Systems/Thermo Fisher Scientific, East Grinstead, United Kingdom) with meropenem or in-house-prepared plates with meropenem, imipenem, and doripenem. ZN148 and other inhibitors were tested at a fixed concentration of 50 μM. Cation-adjusted Mueller-Hinton medium (TREK Diagnostic Systems/Thermo Fisher Scientific; Becton Dickinson, Franklin Lakes, NJ) were used as growth medium. The plates were incubated for 20 h at 37°C. ZN148, ZN222, ZN223, ZN228, and TPA were initially tested in combination with meropenem using two indicator strains: NDM-1-producing K. pneumoniae ([49], [50]) and VIM-2-producing P. aeruginosa ([51]). The activity of ZN148 were subsequently tested against two extended strain collections: (i) in combination with meropenem against MBL-producing Enterobacterales (n = 62), MBL-producing P. aeruginosa (n = 9) and MBL- and class D carbapenemase-coproducing Enterobacterales (n = 5) from the strain collection at the Norwegian National Advisory Unit on Detection of Antimicrobial Resistance and (ii) in combination with meropenem, imipenem, and doripenem against globally collected MBL-producing E. coli (n = 87), K. pneumoniae (n = 85), P. aeruginosa (n = 52), and A. baumannii (n = 6), MBL- and class A/D carbapenemase-coproducing E. coli (n = 11), K. pneumoniae (n = 15) and A. baumannii (n = 7) at IHMA Europe, Sàrl, Switzerland. E. coli ATCC 25922 and P. aeruginosa ATCC 27853 were used as quality control strains. The MBL inhibitors were also tested for intrinsic antibacterial activity against the strains.
For orientation: Dilution methods test growth across graded concentrations, often in twofold steps.

In assay [2] the test system is VIM-2-producing P. aeruginosa K34-7. As to the kind of experiment: Meropenem MIC, broth microdilution, indicator strain K34-7. The class given is cell-based. How it is done: as §1
The subject of assay [3] is E. coli with IMP (n=3). As to the kind of experiment: Meropenem MIC distribution, E. coli with IMP. The class given is cell-based. The settings on record: MEM alone or +50 µM ZN148. The procedure:
(§2) MICs of carbapenems alone and in combination with inhibitors were determined by broth microdilution according to the Clinical and Laboratory Standards Institute (CLSI) guidelines ([48]) using either premade plates (TREK Diagnostic Systems/Thermo Fisher Scientific, East Grinstead, United Kingdom) with meropenem or in-house-prepared plates with meropenem, imipenem, and doripenem. ZN148 and other inhibitors were tested at a fixed concentration of 50 μM. Cation-adjusted Mueller-Hinton medium (TREK Diagnostic Systems/Thermo Fisher Scientific; Becton Dickinson, Franklin Lakes, NJ) were used as growth medium. The plates were incubated for 20 h at 37°C. ZN148, ZN222, ZN223, ZN228, and TPA were initially tested in combination with meropenem using two indicator strains: NDM-1-producing K. pneumoniae ([49], [50]) and VIM-2-producing P. aeruginosa ([51]). […]

The subject of assay [4] is MBL-producing Enterobacterales (n=234). The assay is described as follows: Meropenem MIC distribution, all MBL-producing Enterobacterales. Particulars: for No. of strains with indicated MIC: MEM alone or +50 µM ZN148. The class given is cell-based. The procedure:
as §1

In assay [5] the test system is NDM-1-producing A. baumannii strains (n=6). As to the kind of experiment: Carbapenem MIC, NDM-1-producing A. baumannii. It is filed as cell-based. The procedure: as §1
Assay [6] deals with K. pneumoniae co-producing MBLs and class A/D serine carbapenemases. The assay is described as follows: Carbapenem MIC, K. pneumoniae co-producing MBLs and class D carbapenemases. It is filed as cell-based. How it is done:
as §1

Assay [7] relates to class A carbapenemase (KPC)-producing E. coli. As to the kind of experiment: Carbapenem MIC, class A carbapenemase-producing E. coli. The class given is cell-based. The settings on record: carbapenem alone or with 50µM ZN148. The procedure: as §1
The test system of assay [8] is NDM-1-producing K. pneumoniae K66-45. As to the kind of experiment: Time-kill assay. The class given is cell-based. How it is done:
To determine the kinetics of killing of the meropenem-ZN148 combination, NDM-1-producing K. pneumoniae K66-45 (1 × 10^6 CFU/ml) in cation-adjusted Mueller-Hinton broth II (Sigma-Aldrich, St. Louis, MO) was treated with either 4 mg/liter meropenem or a combination of 4 mg/liter meropenem plus 50 or 100 μM ZN148 and grown at 37°C with shaking (180 rpm). The cell number was determined over the course of 24 h by using a modified Miles-Misra method ([52]). Briefly, […] serial dilutions of culture in sterile PBS were spotted and dried on square (10 by 10 cm) Luria-Bertani agar (Oxoid, Basingstoke, UK) plates at room temperature before incubation at 37°C. The limit of detection was set as […] in […] of undiluted culture, representing 100 CFU/ml.

For assay [9], the system named is NDM-1-producing K. pneumoniae 50752501. The assay is described as follows: Meropenem MIC of the in vivo strain. The class given is cell-based. The settings on record: Klebsiella pneumoniae; read-out: MEM MIC. The procedure: as §2
Assay [10] relates to the strains (MBL-producing Gram-negative clinical strains). As to the kind of experiment: Intrinsic antibacterial activity of the inhibitor. The class given is cell-based. The settings on record: concentrations up to 500 μM. The procedure: as §2
The target in assay [11] is T1, recombinant human glyoxylase II (Homo sapiens, UniProt Q16775).
T1 construct: purchased R&D Systems
As to the kind of experiment: Interaction with human glyoxylase II. It is filed as biochemical. Particulars: 500 μM. The procedure:
Recombinant human glyoxylase II (rHGly II; R&D Systems) was incubated with or without ZN148 (final concentrations of 125, 250, and 500 μM) for 10 and 30 min at 25°C in 50 mM Tris buffer (Merck) supplemented with 250 mM NaCl (pH 7.5). Then, 50 μl of substrate mixture containing 2 mM S-lactoylglutathione and 400 μM 5,5′-dithiobis(2-nitrobenzoic acid) (Sigma-Aldrich) was mixed with 50 μl of the preincubated rHGly II at a final enzyme concentration of 0.2 ng/μl. The initial enzymatic velocity was measured at 405 nm in 96-well plates (Thermo Fisher Scientific, Roskilde, Denmark) at 25°C in a SpectraMax Plus plate reader (Molecular Devices). EDTA (Merck) was included as a control.

Setting [12] is: meropenem 4 mg/liter with either 50 or 100 μM ZN148.

“Also recorded” adds a separate entry of the source. Read-outs that look alike come from different tables or passages of the source. Some results are limits rather than exact numbers.

Usually MIC stands for the smallest concentration in the dilution series that meets the test's criterion for growth inhibition. The term MIC90 denotes an inhibitory concentration at the 90% level, which refers to growth in some studies and to a panel of isolates in others. Turning to `C[C@@H](O)[C@H]1C(=O)N2C(C(=O)O)=C(S[C@@H]3CN[C@H](C(=O)N(C)C)C3)[C@H](C)[C@H]12` [meropenem], the MIC in assay [1] (alone or in presence of 30 µM, 50 µM or 100 µM ZN148 (Table S6 title), read-out: MIC of meropenem) is more than 32 µg/mL; in assay [1] (meropenem alone or +50 µM TPA or ZN148, read-out: Meropenem MIC), 32 to 64 µg/mL; in assay [2] (Pseudomonas aeruginosa, meropenem alone or +50 µM TPA or ZN148) it was 32 to 64 µg/mL; in assay [5] (carbapenem alone or in combination with 50µM ZN148, one value per strain (n=6)), more than 64 µg/mL; in assay [6] (NDM + OXA-48-like strains, meropenem alone or with 50µM ZN148, one value per strain), more than 64 µg/mL; in assay [6] (NDM-1 + OXA-181 strain, meropenem alone or with 50µM ZN148), more than 64 µg/mL. The MIC is more than 64 µg/mL in assay [6] (NDM-5 + OXA-181 strains, carbapenem alone or with 50µM ZN148, one value per strain); 8 µg/mL in assay [7] (Escherichia coli, KPC-2 strains, one value per strain, read-out: MIC); 2 µg/mL in assay [7] (Escherichia coli, KPC-3 strain, read-out: MIC); 4 µg/mL in assay [7] (KPC-2 strains, one value per strain, listed as MEM); 64 µg/mL in assay [9]. The “No. of strains with indicated MIC” value was 1 in [3] (MIC 4 mg/L); 2 in [3] (MIC 16 mg/L); 1 in assay [4] (MIC 0.5 mg/L); 2 in assay [4] (MIC 1 mg/L); 3 in [4] (MIC 2 mg/L); 10 in assay [4] (MIC 4 mg/L). The “No. of strains with indicated MIC” value amounted to 9 in assay [4] (MIC 8 mg/L), 22 in assay [4] (MIC 16 mg/L), 35 in assay [4] (MIC 32 mg/L) and 152 in assay [4] (MIC ≥64 mg/L). The MIC90 in assay [4] was not below 64 µg/mL. For the same compound, the “cell number after 24 h” value in assay [8] (meropenem alone 4 mg/liter) is > 1 × 10^9 CFU/ml. Also, the “initial reduction in cell numbers (bacteriostatic effect)” value in assay [8] (meropenem alone 4 mg/liter) came out at 2 log.

For the compound `CN(C[C@H](O)[C@@H](O)[C@H](O)[C@H](O)CO)C(=O)c1ccc(CN(Cc2ccccn2)Cc2ccccn2)nc1` [ZN148], the “restoration of meropenem clinical susceptibility (EUCAST breakpoints)” value in assay [1] (inhibitor at 50 μM) was “fully restored meropenem clinical susceptibility”. The “restoration of meropenem clinical susceptibility (EUCAST breakpoints)” value in assay [2] (inhibitor at 50 μM) was “fully restored meropenem clinical susceptibility”. For the same compound, the “strains with meropenem MIC reduced to susceptible levels (≤2 mg/liter)” value in assay [4] (ZN148 at 50 μM, n = 234) is more than 98%. Moreover, the “reduction of meropenem MIC” value in [5] (in four of six clinical strains, class D carbapenemase-negative) was more than 2 fold. Also, the intrinsic antibacterial activity entry in assay [10] is “no intrinsic antibacterial activity”. Further, in assay [8] (setting [12]), the “cell numbers after 8 h (below limit of detection)” value is recorded as < 1 × 10^2 CFU/ml, the “killing effect of combination” value was “bactericidal” and the “regrowth within 24 h” value is on record as “no regrowth”. For the same compound, the “inhibitory activity against recombinant human glyoxylase II” value in assay [11] is on record as “no inhibition; also recorded: no inhibitory activity”.
